Measured values published in patent publication US20030207792A1, “Treating cancer” (priority 2002, published 2003).
Where two headings read alike, the source gives them in different places.

How the values were obtained:
Assay type in all cases: cell-based
HCT116 cells [1] = test: Growth curves of transfected HCT116 cultures; conditions: oligonucleotide 1 μM with lipofectin
Protocol: (§1) Sense and antisense phosphorothionate oligonucleotide with the sequence set out in SEQ1 and SEQ2 respectively were synthesised in a 380B DNA synthesiser. Each oligonucleotide was premixed with lipofectin reagent and diluted in DMEM (Gibco). 6 cm plates of HCT116 cells at 40-50% confluence were rinsed once with 4 ml serum free DMEM and transfected with the oligonucleotides at a final concentration of 1 μM and the lipofectin reagent at a final concentration of 19 μg/ml according to the manufacturer's instructions (Life Technologies Inc., Gaithersburg, Md.). After 4 hours, Foetal Calf Serum (Gibco) was added to a final concentration of 10%. A lipofectin only transfection was performed as a control. Cell extracts were harvested after 48 h and examined by Western blot analysis with a pRb antibody. Equal loading of protein samples was confirmed by Coomassie blue staining or by immunoreactivity with an anti-actin antibody (Sigma). The intensities of the Rb bands were quantised with an image scanner (Molecular Dynamics). […] The treatment with the sense oligonucleotide led to about a 5% reduction in the level of pRb. […] Apoptosis in the cultures 48 h after transfection was tested for using the TUNEL assay. An in situ apoptosis detection kit ApopTag (Oncor, Gaithersburg, Md.) was used as recommended by the manufacturer. […]

pRb = test: Western blot analysis of pRb level in HCT116 cells 48 h after oligonucleotide transfection; conditions: oligonucleotide 1 μM with lipofectin 19 μg/ml, extracts after 48 h, Western blot band intensity
Protocol: as §1

HCT116 cells [2] = test: TUNEL assay (ApopTag) for apoptosis 48 h after transfection
Protocol: Sense and antisense phosphorothionate oligonucleotide with the sequence set out in SEQ1 and SEQ2 respectively were synthesised in a 380B DNA synthesiser. Each oligonucleotide was premixed with lipofectin reagent and diluted in DMEM (Gibco). 6 cm plates of HCT116 cells at 40-50% confluence were rinsed once with 4 ml serum free DMEM and transfected with the oligonucleotides at a final concentration of 1 μM and the lipofectin reagent at a final concentration of 19 μg/ml according to the manufacturer's instructions (Life Technologies Inc., Gaithersburg, Md.). After 4 hours, Foetal Calf Serum (Gibco) was added to a final concentration of 10%. A lipofectin only transfection was performed as a control. Cell extracts were harvested after 48 h and examined by Western blot analysis with a pRb antibody. Equal loading of protein samples was confirmed by Coomassie blue staining or by immunoreactivity with an anti-actin antibody (Sigma). The intensities of the Rb bands were quantised with an image scanner (Molecular Dynamics). […] The treatment with the sense oligonucleotide led to about a 5% reduction in the level of pRb. […] Apoptosis in the cultures 48 h after transfection was tested for using the TUNEL assay. An in situ apoptosis detection kit ApopTag (Oncor, Gaithersburg, Md.) was used as recommended by the manufacturer. The percentage of TUNEL positive cells was 1.5+/−1% for the lipofectin treated culture, 3+/−0.5% for the culture transfected with the sense oligonucleotide and 18+/−0.5% for the culture transfected with the antisense oligonucleotide. Thus, the sense oligonucleotide caused about a two-fold increase in apoptosis, but the antisense oligonucleotide caused over a 10-fold increase in apoptosis. As the antisense oligonucleotide inhibits growth and increases apoptosis, it is thus an effective chemotherapeutic agent.

| Substance | effect on growth (growth curves) compared with the lipofectin-treated control culture (HCT116 cells [1]) | level of pRb expression relative to the control culture treated only with lipofectin (pRb) | percentage of TUNEL positive cells (HCT116 cells [2]; HCT116 cells, 48 h after transfection, oligonucleotide 1 μM) | fold increase in apoptosis (HCT116 cells [2]; HCT116 cells, 48 h after transfection, versus lipofectin treated culture) [fold] | fold increase in apoptosis (HCT116 cells [2]) |
| --- | --- | --- | --- | --- | --- |
| 5′-GGTTTTGGGCGGCATGAC-3′ (DNA, all phosphorothioate, methylation of C not given here) [antisense oligonucleotide] | displayed growth inhibition | about 30% | 18+/−0.5% | > 10 | – |
| 5′-GTCATGCCGCCCAAAACC-3′ (phosphorothioate, further chemistry not given here) [sense oligonucleotide, reference compound] | – | – | – | – | two-fold |
